Patent US9518038B2, “Condensation product of theanine derivative and carboxylic acid coumarin derivative, its intermediate, preparation method and use thereof” (SHANDONG YINGDONG YINGHAO BIOTECHNOLOGY, INC., priority 2012, dated 2016)
pEC50, pIC50: −log10 of the molar value.

What was measured:
EZH2 = molecular target: T1, EZH2 (Homo sapiens, UniProt Q15910); assay: EZH2 enzyme activity in protein extracts of human tumor xenografts of treated mice (EZH2 Assay Kit); assay type: in vivo; details: tumors excised 6 h after medication, SAHA 25 mg/kg
T1 construct: the EZH2 enzyme was replaced with tumor protein extracts in each group; from tissue; host or cells: human tumour xenografts excised from treated nude mice
T1 sequence (Q15910 whole entry): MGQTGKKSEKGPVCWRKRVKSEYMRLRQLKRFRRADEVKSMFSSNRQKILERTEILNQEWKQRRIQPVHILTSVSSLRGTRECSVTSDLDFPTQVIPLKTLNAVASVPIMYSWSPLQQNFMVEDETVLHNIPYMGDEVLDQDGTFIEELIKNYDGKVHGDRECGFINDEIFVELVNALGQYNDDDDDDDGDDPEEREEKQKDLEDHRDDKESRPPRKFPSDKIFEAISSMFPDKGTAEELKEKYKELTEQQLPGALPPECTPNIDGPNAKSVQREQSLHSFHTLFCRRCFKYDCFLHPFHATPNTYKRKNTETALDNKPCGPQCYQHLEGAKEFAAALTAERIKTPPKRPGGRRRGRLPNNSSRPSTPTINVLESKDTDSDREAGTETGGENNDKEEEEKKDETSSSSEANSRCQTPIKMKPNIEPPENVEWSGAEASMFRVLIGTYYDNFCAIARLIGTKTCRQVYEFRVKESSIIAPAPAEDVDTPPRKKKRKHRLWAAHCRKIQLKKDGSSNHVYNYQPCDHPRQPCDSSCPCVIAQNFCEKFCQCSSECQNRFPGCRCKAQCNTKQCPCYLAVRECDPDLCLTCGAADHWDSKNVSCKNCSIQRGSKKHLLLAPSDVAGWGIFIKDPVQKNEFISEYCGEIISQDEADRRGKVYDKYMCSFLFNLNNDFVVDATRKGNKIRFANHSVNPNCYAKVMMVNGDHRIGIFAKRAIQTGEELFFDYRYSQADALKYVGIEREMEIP
T1 sequence (O75530 whole entry partner): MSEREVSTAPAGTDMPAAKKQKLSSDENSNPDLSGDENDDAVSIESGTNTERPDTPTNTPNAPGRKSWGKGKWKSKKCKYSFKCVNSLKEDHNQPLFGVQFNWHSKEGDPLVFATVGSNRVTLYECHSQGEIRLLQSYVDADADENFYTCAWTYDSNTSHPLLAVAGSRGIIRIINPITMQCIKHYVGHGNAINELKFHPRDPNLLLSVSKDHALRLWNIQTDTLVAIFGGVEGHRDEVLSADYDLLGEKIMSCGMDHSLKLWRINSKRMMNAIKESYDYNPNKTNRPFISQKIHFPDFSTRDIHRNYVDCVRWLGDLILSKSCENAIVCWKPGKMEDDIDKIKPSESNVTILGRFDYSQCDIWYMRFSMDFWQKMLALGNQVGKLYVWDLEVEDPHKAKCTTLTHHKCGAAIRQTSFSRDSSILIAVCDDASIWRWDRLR
T1 sequence (Q15022 whole entry partner): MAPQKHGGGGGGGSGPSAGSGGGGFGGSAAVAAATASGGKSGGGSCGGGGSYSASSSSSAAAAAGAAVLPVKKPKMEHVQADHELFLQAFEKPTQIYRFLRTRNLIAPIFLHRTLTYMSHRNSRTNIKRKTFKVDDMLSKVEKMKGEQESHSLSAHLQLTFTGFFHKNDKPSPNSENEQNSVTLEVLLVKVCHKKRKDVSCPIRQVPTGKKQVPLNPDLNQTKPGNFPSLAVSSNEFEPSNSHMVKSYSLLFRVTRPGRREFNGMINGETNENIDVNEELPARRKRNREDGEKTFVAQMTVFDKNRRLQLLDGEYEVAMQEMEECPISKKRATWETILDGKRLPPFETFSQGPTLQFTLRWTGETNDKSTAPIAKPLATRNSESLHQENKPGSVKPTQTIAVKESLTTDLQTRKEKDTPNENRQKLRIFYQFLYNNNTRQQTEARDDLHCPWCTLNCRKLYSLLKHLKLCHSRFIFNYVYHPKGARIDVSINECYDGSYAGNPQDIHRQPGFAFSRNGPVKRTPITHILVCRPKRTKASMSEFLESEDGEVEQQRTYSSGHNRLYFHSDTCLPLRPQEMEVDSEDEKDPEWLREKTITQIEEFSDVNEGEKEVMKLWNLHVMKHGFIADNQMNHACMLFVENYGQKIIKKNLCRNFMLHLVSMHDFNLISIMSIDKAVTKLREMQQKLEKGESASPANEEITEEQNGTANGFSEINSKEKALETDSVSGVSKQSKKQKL

[1] = test system: human gastric cancer cells BGC-823; assay: MTT growth inhibition, BGC-823 cells; assay type: cell-based; details: 72 h after treatment, read-out: Drug concentration (IC50) at which 50% cancer cells survived
Text: (§1) Cell lines and cell culture: human lung cancer cells A549 and H460, human breast cancer cells MCF-7 and MDA-MB-231, human gastric cancer cells BGC-823, human prostate cancer cells PC-3, human chronic leukemia cells K562, human lymphoma cells U937, human liver cancer cells SMMC7721 and HepG2, human colon cancer cells HT29, human pancreatic cancer cells PANC-1 and BxPC3, human cervical cancer Hela cell lines, human brain tumor cells Daoy, human neuroma cells D54 and human oral epidermoid cancer cells KBV200 line with strong drug resistance, mouse melanoma cells B16, and highly metastatic Lewis lung cancer cell lines were purchased from American Type Culture Collection of the U.S. These cells were cultured with DMEM and RPMI-1640 culture solutions separately.
(§2) The procedure was as follows:
(§3) (1) 0.25% trypsin was used to digest cancer cells in a logarithmic growth phase to prepare a single-cell suspension, the concentration of cells was adjusted to 5×10^4/mL, and the adjusted suspension was inoculated into a 96-well culture plate with 100 μl per well;
(§4) (2) The culture plate was transferred into a 37° C. incubator with a saturated humidity and 5% of CO2 and cultured for 24 h; the compounds and the intermediates thereof obtained in embodiments 1-7 and the compound as represented by formula (IIIa) or the positive control anti-cancer drug with the concentration of 1-1000 μM/L were added to enable the final concentration to be 0.1-1500 μM/L. Control wells (only added with 200 μl of cell suspension) and drug-free blank control wells (containing the solvent of 0.01% DMSO) were set, each group included 8 wells, and the plate was placed into the 37° C. incubator with saturated humidity and 5% of CO2 for culturing;
(§5) (3) The 96-well plate was taken out at 48 h and 72 h after dosing, the original culture medium was carefully removed by suction, 100 μl of serum-free DMEM culture medium and 10 μl of MTT (5 mg/mL) solution were added in each well. The plate was continuously cultured for another 4 h and then the culture was terminated;
(§6) (4) The supernatant in the wells was carefully removed by suction, each well was added with 150 μl of DMSO and shaked at room temperature for 10-15 min to fully dissolve crystals.
(§7) (5) Colorimetric analysis: the wavelength was selected as 570 nm, the light absorbance (A value) of each well was determined on the microplate reader and the results were recorded; the experiment was repeated for three times;
(§8) (6) the experimental results were calculated according to the following formula: relative survival rate=(A value of each experimental group/A value of cell control group)×100%
(§9) Calculation of median-effect concentration (IC50, namely the drug concentration at which the inhibition rate is 50%, also known as half inhibitory concentration):
(§10) IC50 of the detected component was calculated by using a regression equation.

[2] = test system: human chronic leukemia cells K562; assay: MTT growth inhibition, K562 cells; assay type: cell-based; details: 72 h after treatment, read-out: Drug concentration (IC50) at which 50% cancer cells survived
Text: as §1, §2, §3, §4, §5, §6, §7, §8, §9, §10

E-cadherin = assay: Western Blotting, increase of E-cadherin level; assay type: cell-based; details: liver cancer cells, Lewis lung cancer cells and other cancer cell lines and tumor tissue protein lysates, 48 h treatment, read-out: Effective concentration to increase E-cadherin by 50%
Text: (§11) Antibodies: primary antibodies of VEGFR, EGFR, c-Met, K-Ras, H-Ras, Akt, NF-κB, Cyclin D1, ER-alpha, Dvl-1, Dvl-2, Dvl-3, MMP-9, MMP2, β-catenin, Bcl-2, Bax, p53, p21, E-cadherin and Caspase3 protein, purchased from American Cell Signaling Technology Company and Santa Cruz Technology Company; and H3 acetylation, H4 acetylation and HDAC (HDAC3, HDAC4 and the like) Antibody Sample Kits, purchased from Cell Signaling Technology Company of the U.S.
(§12) (3) polyacrylamide gel electrophoresis (SDS-PAGE): an equal amount of protein lysate sample was used to separate protein, film transfer, and blocking, treated with appropriate primary antibodies and secondary antibodies in sequence, and the film was washed, then the color was developed with ECL kit, and a blot protein band was detected by exposure of an X-ray film; and a Gel-Pro Analyzer was used for quantitative analysis of gray degree, optical density value of the control group and the drug treatment group in various concentration were respectively compared with that of internal reference, the obtained ratios were respectively compared with the control group, and the protein expression level was semi-quantified.

p53 = assay: Western Blotting, increase of p53 level; assay type: cell-based; details: liver cancer cells, Lewis lung cancer cells and other cancer cell lines and tumor tissue protein lysates, 48 h treatment, read-out: Effective concentration to increase p53 by 50%
Text: as §11, §12

[3] = test system: human oral epidermoid cancer cells KBV200; assay: MTT growth inhibition, KBV200 cells; assay type: cell-based; details: 72 h after treatment, read-out: Drug concentration (IC50) at which 50% cancer cells survived
Text: as §1, §2, §3, §4, §5, §6, §7, §8, §9, §10

Akt = assay: Western Blotting, Akt level; assay type: cell-based; details: human liver cancer cells, Lewis lung cancer cells and other cancer cell lines and tumor tissues, read-out: Effective concentration (IC50) for inhibition of Akt
Text: as §11, §12

mouse melanoma cells B16 = assay: MTT growth inhibition, B16 cells; assay type: cell-based; details: Mus musculus, 72 h after treatment, read-out: Drug concentration (IC50) at which 50% cancer cells survived
Text: as §1, §2, §3, §4, §5, §6, §7, §8, §9, §10

`CCNC(=O)CC[C@@H](NC(=O)c1cc2cc(Br)ccc2oc1=O)C(=O)OCC` [Compound Id, (R)-2-(6-Br-2-oxo-2H-benzopyran-3-carboxamido)-5-ethylamino-5-oxo-pentanoic acid ethyl ester] was tested, and the “decrease of EZH2 enzyme activity/inhibition rate” value (EZH2; A549 tumor grown in vivo) was 61%*(A549)-, the “decrease of EZH2 enzyme activity/inhibition rate” value (EZH2; MCF7 tumor grown in vivo) was 56%*(MCF7) and the “decrease of EZH2 enzyme activity/inhibition rate” value (EZH2; MDA-MB231 tumor grown in vivo) was 58%*(MDA-MB231). The “decrease of EZH2 enzyme activity/inhibition rate” value (EZH2; SMMC7721 tumor grown in vivo) was 59%*(SMMC7721);, the pIC50 [1] was 4.19 and the pIC50 [2] was 3.90. It also gave a pEC50 (E-cadherin) greater than 4.19, a pEC50 (p53) greater than 4.00 and a pIC50 [3] of 3.95. It also gave a pIC50 (Akt) greater than 4.00 and a pIC50 (mouse melanoma cells B16) of 3.92.
In the case of `CCNC(=O)CC[C@H](N)C(=O)OC` [Compound IIa, theanine methyl ester], the pIC50 [1] was 3.51, the pIC50 [2] was 3.46 and the pIC50 [3] was 3.42. For the same compound, the pIC50 (mouse melanoma cells B16) was 3.35.
`CCNC(=O)CC[C@@H](NC(=O)c1cc2cc(Cl)ccc2oc1=O)C(=O)OCC` [Compound Ic, (R)-2-(6-CI-2-oxo-2H-benzopyran-3-carboxamido)-5-ethylamino-5-oxo-pentanoic acid ethyl ester] was tested, and the “decrease of EZH2 enzyme activity/inhibition rate” value (EZH2; A549 tumor grown in vivo) was 61%*(A549)-, the “decrease of EZH2 enzyme activity/inhibition rate” value (EZH2; MCF7 tumor grown in vivo) was 56%*(MCF7) and the “decrease of EZH2 enzyme activity/inhibition rate” value (EZH2; MDA-MB231 tumor grown in vivo) was 58%*(MDA-MB231). The “decrease of EZH2 enzyme activity/inhibition rate” value (EZH2; SMMC7721 tumor grown in vivo) was 59%*(SMMC7721);, the pIC50 [1] was 4.18 and the pIC50 [2] was 3.98. For the same compound, the pEC50 (E-cadherin) was greater than 4.19, the pEC50 (p53) was greater than 4.00 and the pIC50 [3] was 4.01. The pIC50 (Akt) was greater than 4.00 and the pIC50 (mouse melanoma cells B16) was 3.90.
In the case of `CCNC(=O)CC[C@@H](NC(=O)c1cc2cc(Cl)cc(Cl)c2oc1=O)C(=O)OCC` [Compound Ig, (R)-2-(6,8-dichloro-2-oxo-2H-benzopyran-3-carboxamido)-5-ethylamino-5-oxo-pentanoic ethyl ester], the “decrease of EZH2 enzyme activity/inhibition rate” value (EZH2; A549 tumor grown in vivo) was 57%*(A549)-, the “decrease of EZH2 enzyme activity/inhibition rate” value (EZH2; MCF7 tumor grown in vivo) was 65%*(MCF7) and the “decrease of EZH2 enzyme activity/inhibition rate” value (EZH2; MDA-MB231 tumor grown in vivo) was 61%*(MDA-MB231). For the same compound, the “decrease of EZH2 enzyme activity/inhibition rate” value (EZH2; SMMC7721 tumor grown in vivo) was 58%*(SMMC7721);, the pIC50 [1] was 4.22 and the pIC50 [2] was 4.24. The pEC50 (E-cadherin) was greater than 4.15, the pEC50 (p53) was greater than 4.15 and the pIC50 [3] was 4.08. For the same compound, the pIC50 (Akt) was greater than 4.15 and the pIC50 (mouse melanoma cells B16) was 3.90.
For `CCNC(=O)CCC(NC(=O)c1cc2cc([N+](=O)[O-])ccc2oc1=O)C(=O)OCC` (stereo in doubt) [Compound If, (R)-2-(6-nitro-2-oxo-2H-benzopyran-3-carboxamido)-5-ethylamino-5-oxo-pentanoic acid ethyl ester], the “decrease of EZH2 enzyme activity/inhibition rate” value (EZH2; A549 tumor grown in vivo) was 65%*(A549)-, the “decrease of EZH2 enzyme activity/inhibition rate” value (EZH2; MCF7 tumor grown in vivo) was 66%*(MCF7) and the “decrease of EZH2 enzyme activity/inhibition rate” value (EZH2; MDA-MB231 tumor grown in vivo) was 63%*(MDA-MB231). The “decrease of EZH2 enzyme activity/inhibition rate” value (EZH2; SMMC7721 tumor grown in vivo) was 64%*(SMMC7721);, the pIC50 [1] was 3.94 and the pIC50 [2] was 4.04. The pEC50 (E-cadherin) was greater than 4.19, the pEC50 (p53) was greater than 4.19 and the pIC50 [3] was 3.99. It also gave a pIC50 (Akt) greater than 4.05 and a pIC50 (mouse melanoma cells B16) of 3.55.
In the case of `CCNC(=O)CCC(NC(=O)c1cc2ccccc2oc1=O)C(=O)OCC` (stereo not shown) [Compound Ib, ethyl 5-ethylamino-5-oxo-2-(2-oxo-2H-benzopyran-3-carboxamido)pentanoate], the “decrease of EZH2 enzyme activity/inhibition rate” value (EZH2; A549 tumor grown in vivo) was 54%*(A549)-, the “decrease of EZH2 enzyme activity/inhibition rate” value (EZH2; SMMC7721 tumor grown in vivo) was 57%*(SMMC-7721) and the pIC50 [1] was 3.90. For the same compound, the pIC50 [2] was 3.82, the pEC50 (E-cadherin) was greater than 4.15 and the pEC50 (p53) was greater than 3.92. The pIC50 [3] was 3.87, the pIC50 (Akt) was greater than 3.92 and the pIC50 (mouse melanoma cells B16) was 3.96.
With `CCNC(=O)CCC(NC(=O)c1cc2cc(F)ccc2oc1=O)C(=O)OCC` (stereo in doubt) [Compound Ie, (R)-2-(6-F-2-oxo-2H-benzopyran-3-carboxamido)-5-ethylamino-5-oxo-pentanoic acid ethyl ester] the “decrease of EZH2 enzyme activity/inhibition rate” value (EZH2; A549 tumor grown in vivo) was 58%*(A549)-, the “decrease of EZH2 enzyme activity/inhibition rate” value (EZH2; MCF7 tumor grown in vivo) was 62%*(MCF7) and the “decrease of EZH2 enzyme activity/inhibition rate” value (EZH2; MDA-MB231 tumor grown in vivo) was 59%*(MDA-MB231). The “decrease of EZH2 enzyme activity/inhibition rate” value (EZH2; SMMC7721 tumor grown in vivo) was 56%*(SMMC7721);, the pIC50 [1] was 3.84 and the pIC50 [2] was 3.89. It also gave a pEC50 (E-cadherin) greater than 4.19, a pEC50 (p53) greater than 4.00 and a pIC50 [3] of 3.68. For the same compound, the pIC50 (Akt) was greater than 3.80 and the pIC50 (mouse melanoma cells B16) was 3.64.
With `CCNC(=O)CC[C@H](N)C(=O)OCC` [Compound IIb, theanine ethyl ester] the pIC50 [1] was 3.22, the pIC50 [2] was 3.22 and the pIC50 [3] was 3.52. For the same compound, the pIC50 (mouse melanoma cells B16) was 3.30.
In the case of `CCNC(=O)CC[C@@H](NC(=O)c1cc2cc(Br)cc(Br)c2oc1=O)C(=O)OCC` [Compound Ih, (R)-2-(6,8-dibromo-2-oxo-2H-benzopyran-3-carboxamido)-5-ethylamino-5-oxo-pentanoic ethyl ester], the “decrease of EZH2 enzyme activity/inhibition rate” value (EZH2; A549 tumor grown in vivo) was 55%*(A549)-, the “decrease of EZH2 enzyme activity/inhibition rate” value (EZH2; MCF7 tumor grown in vivo) was 61%*(MCF7) and the “decrease of EZH2 enzyme activity/inhibition rate” value (EZH2; MDA-MB231 tumor grown in vivo) was 59%*(MDA-MB231). The “decrease of EZH2 enzyme activity/inhibition rate” value (EZH2; SMMC7721 tumor grown in vivo) was 56%*(SMMC7721);, the pIC50 [1] was 4.07 and the pIC50 [2] was 4.10. For the same compound, the pEC50 (E-cadherin) was greater than 4.15, the pEC50 (p53) was greater than 4.15 and the pIC50 [3] was 4.14. For the same compound, the pIC50 (Akt) was greater than 4.15 and the pIC50 (mouse melanoma cells B16) was 3.84.
With `CCNC(=O)CCC(NC(=O)c1cc2ccccc2oc1=O)C(=O)OC` (stereo not shown) [Compound Ia, methyl 5-ethylamino-5-oxo-2-(2-oxo-2H-benzopyran-3-carboxamido)pentanoate] the “decrease of EZH2 enzyme activity/inhibition rate” value (EZH2; SMMC7721 tumor grown in vivo) was 54%*(SMMC-7721), the pIC50 [1] was 3.91 and the pIC50 [2] was 3.61. It also gave a pEC50 (E-cadherin) greater than 4.12, a pEC50 (p53) greater than 3.90 and a pIC50 [3] of 3.62. It also gave a pIC50 (Akt) greater than 3.90 and a pIC50 (mouse melanoma cells B16) of 3.84.
